Measured values reported in patent US11491117B2, “Compounds for the prevention and treatment of glucose intolerance related conditions and obesity” (SORBONNE UNIVERSITÉ, priority 2017, dated 2022).

How the values were obtained:
Goto-Kakizaki (GK) rats = assay: Chronic subcutaneous infusion in Goto-Kakizaki rats: body and organ weight, glucose homeostasis (IPGTT), insulin secretion; assay type: in vivo, rat
Procedure: The animal experiments on rats were conducted on diabetic adult 8 months aged male Goto-Kakizaki (GK) rats from the local colony of Paris-Diderot University (Paris, France). GK strain derived after backcrossing of animals selected at the upper limit of normal distribution for glucose tolerance. Characteristics of GK rats have been previously described. Rats had free access to a control carbohydrate diet (CHD) (D 12450Ki, Research diets, NJ) and were kept on 12 h light/dark cycle. […] Rats were killed by decapitation and blood and organs collected for measurement of metabolic parameters, islet isolation for quantitative RT-PCR analysis and immunohistochemistry. […] After three weeks of metabolite treatment (i.e. four weeks of HFD feeding) an intra-peritoneal glucose tolerance test (IPGTT) (2 g/kg) was performed in conscious mice following an overnight fast. Blood was collected from the tail vein before glucose injection and 15, 30, 60 and 120 minutes afterwards. Additional blood samples were collected during the IPGTT in GK rats 15, 90, 180 and 240 minutes after glucose injection. Blood glucose levels were determined using an Accu-Check® Performa (Roche Diagnostics, Meylan, France). Additional blood samples were collected at base line and 30 minutes after glucose injection in Microvette® CB 300 Lithium Heparin ([…], France). Plasma was separated by centrifugation and stored at -80° C. until insulin radioimmunoassay. Evaluation of overall glucose tolerance was obtained from cumulative glycemia (GCum) and the ΔG, which were determined by the total increment of plasma glucose values during the IPGTT (GCum) and the cumulative glycemia during the test above baseline (ΔG). After six weeks of metabolite treatment, mice were killed by decapitation and organ were dissected and weighed. Half of liver, fat and pancreas samples were snap frozen in liquid nitrogen and stored at -80° C. for molecular studies, and the second half processed for histopathology. All procedures were authorized following review by the institutional ethic committee and carried out under national license condition (Ref 00486.02). Blood glucose was measured using an Accu-Check® Performa (Roche Diagnostics, Meylan, France) and plasma insulin was determined using Insulin ELISA kits (Mercodia, Uppsala, Sweden). For determination of liver triglycerides, liver samples (100 mg) were homogenized and incubated in NonidetP-40 (5%) and supernatants containing triglycerides were collected. Triglycerides concentration was quantified in the supernatant fraction using a colorimetric assay (ab65336, Abcam, Paris, France) by measuring OD at 570 nm. The ratio NAD/NADH was determined using a quantification kit (MAK037; […] Samples were homogenized in the extraction buffer and clarified by centrifugation. Supernatant was deproteinized by filtration through a 10-kDa cutoff spin filter (Millipore SAS, Molsheim, France). The assay was then performed according to the manufacturer's instructions.

pancreas gene expression = assay: Quantitative RT-PCR in pancreas of chronically treated GK rats; assay type: in vivo, rat
Procedure: RNA was extracted from pancreas, adipose tissue and liver using the RNeasy RNA Mini Kit (Qiagen, Courtaboeuf, France). Reverse transcription was performed from a 20 μL reaction mixture with 500 ng RNA using M-MLV reverse transcriptase kit (ThermoFisher, Villebon, France). Quantitative RT-PCR was performed using sequence specific primers and the MESA green kit for SYBR green assays (Eurogentec, Angers, France). We used 18S and/or cyclophilin house keeping genes to normalize relative quantification of mRNA levels using the Livak and […] methods ([…], 2001).

isolated mouse islets = assay: Incubation of isolated mouse islets: insulin release, insulin content, Ki67 proliferation; assay type: cell-based

SMILES: Cc1ccc(O)cc1 [4-cresol]
- fasting glycemia (Goto-Kakizaki (GK) rats): significant reduction
- glycemic response to the glucose challenge throughout the IPGTT (glucose intolerance) (Goto-Kakizaki (GK) rats): decrease
- cumulative glycemia (Goto-Kakizaki (GK) rats; IPGTT): significant drop
- increase in pancreas weight (Goto-Kakizaki (GK) rats; P<0.01): +94.6%
- BMI (Goto-Kakizaki (GK) rats; chronic administration 6 weeks): no effect
- body weight (Goto-Kakizaki (GK) rats; chronic administration 6 weeks): no effect
- fasting insulinemia (Goto-Kakizaki (GK) rats; vs saline): significantly more elevated
- glucose-induced insulin secretion during the IPGTT (Goto-Kakizaki (GK) rats; vs saline): significantly more elevated
- stimulatory effects on expression of Sirt1, Ins1, Hnf1α, IL10 and Vegfa in pancreas (pancreas gene expression; GK rats): replicated
- pancreatic expression of ERα (pancreas gene expression; GK rats in vivo): does not regulate significantly
- DYRK1A pancreatic transcription (pancreas gene expression; GK rats, chronic treatment): significant downregulation
- expression of genes encoding amylase, IL6 and Tnf in pancreas (pancreas gene expression; GK rats, differences to saline not statistically significant): strongly altered
- islet cell proliferation (KI67) (isolated mouse islets; 10 nM): significant effect
- increase in insulin release under basal condition (isolated mouse islets; 10 nM, 2.8 mM glucose): +17.3%
- stimulation of insulin secretion in response to glucose (isolated mouse islets; 10 nM, glucose 16.6 mM, p=0.06): +25.8%
- increase in islet insulin content (isolated mouse islets; 10 nM, p<0.05): +33.7%
- insulin production, secretion and content (isolated mouse islets; 100 nM): no effect
